Measurements taken from patent US8728457B2, “Methods of inducing differentiation of stem cells” (priority 2001, dated 2014).

Assays:
[1] = tested on: hES-derived cardiomyocytes; assay: Beating of hES-derived cardiomyocytes in response to pharmacological agonists; type: cell-based, human; conditions: hES2/END-2 co-culture derived cardiomyocytes
Protocol: (§1) END-2 cells and hES cells were cultured as described in Example 1. The hES2 cell line from ES Cell International Pte Ltd was used in all experiments. […] Co-cultures were then grown for up to 6 weeks and scored for the presence of areas of beating muscle from 5 days onwards. HepG2 cells, a carcinoma cell line resembling liver parenchymal cells (Knowles et al, (1980) Science 209:497-9), were cultured in DMEM plus 10% FCS and passaged twice weekly. […] Hanging-drop cultures of P19 EC cells were initiated and maintained in DMEM/Ham's F12 (1:1), as described previously (Mummery et al, 1991), using regular FCS while bulk production of P19 embryoid bodies in the presence or absence of END-2 conditioned medium for isolation of RNA for Northem blotting, was in the presence of charcoal-stripped FCS, as described (Mummery et al, 1991) to reduce background levels of cardiomyocyte differentiation caused by lipophilic substances possibly with retinoid-like activity in FCS. P19 clone 6 were cultured in αMEM and treated αMEM conditioned by END-2 cells. For electrophysiology, beating aggregates were dissociated using collagenase and replated on gelatine-coated coverslips.
The majority of the experiments described here were carried out using the hES2 cell line (Reubinoff et al, 2000). […] Oct4 expression thus correlated with phenotypic characteristics of undifferentiated cells. hES cells were subcultured by transferring small clumps of undifferentiated cells either to new, mit.C-treated MEFs or confluent cultures of mit.C-treated END-2 cells. After approximately 5d under these conditions, epithelial cells became evident which over the next few days become fluid-filled cysts (FIG. 1A). […] In addition, by 10 d areas of rhythmically contracting cells in more solid aggregates become evident (FIG. 1A, 3e) with a variety of overall morphologies (FIG. 1B, 3e). […]

Brachyury T = assay: Northern blot of Brachyury T in P19EC aggregates; type: cell-based, mouse; conditions: FIG. 10B
Protocol: as §1
RNA was isolated from P19 aggregates and poly A+ RNA selected, as described previously (Mummery et al, 1990, Dev. Biol. 142: 406413).
Background differentiation levels are reduced virtually to zero if the FCS is passed over an activated charcoal column (DCC-FCS) to remove residual retinoids; in addition, differentiation is blocked by activin (van den Eijnden-van Raaij et al, 1991, Mech. Dev. 33:157-166). […] The P19EC assay system was preferred because these cells are feeder independent for undifferentiated growth. […] Moreover, the induction of Brachyury T is blocked by the additional presence of activin (FIG. 10B), consistent with its ability to block the formation of beating muscle in aggregates. The transient expression of Brachyury T is similar to that observed during early mesoderm differentiation during gastrulation of the mouse embryo.

P19 EC cells [2] = conditions: van den Eijnden-van Raaij et al, 1991; cited from earlier work
P19 EC cells [3] = assay: Induction of beating muscle in replated P19EC aggregates (hanging drops); type: cell-based, mouse
Protocol: as §1, with “coverslips. […]” for “coverslips.”

CNC[C@H](O)c1cccc(O)c1 [phenylephrine]
beating of hES-derived cardiomyocytes in response to agonist [1]: upregulated

CC(C)NCC(O)c1ccc(O)c(O)c1 (stereo not drawn) [isoprenaline]
beating of hES-derived cardiomyocytes in response to agonist [1]: upregulated

C[N+](C)(C)CCOC(N)=O [carbachol]
beating of hES-derived cardiomyocytes in response to agonist [1]: upregulated

activin
effect on DMSO induced Brachyury T expression (Brachyury T; activin added with DMSO): blocked | effect on END-2 CM induced Brachyury T expression (Brachyury T; activin added with END-2 CM): blocked | effect on differentiation of P19EC aggregates to beating muscle (P19 EC cells [2]): blocked

C[S+](C)[O-] [DMSO, dimethyl sulphoxide]
cardiomyocyte differentiation of P19EC aggregates (P19 EC cells [3]; control, FIG. 10): induces cardiomyocyte differentiation | aggregates with beating muscle (P19 EC cells [3]; day 10, FIG. 10A): All aggregates beat | Brachyury T expression (early mesoderm marker) (Brachyury T; aggregation phase, first 3 days): induced
